Assay results taken from the NIST ThermoML archive (doi:10.1016/j.fluid.2010.02.021).
Numbers after ± are expanded uncertainties.

Assay: xn = mol fraction of the nth substance listed
Settings: 101.3 kPa, Liquid, Falling or rolling sphere viscometry

CCn1cc[n+](C)c1.O=S(=O)([N-]S(=O)(=O)C(F)(F)F)C(F)(F)F + O
viscosity [mPa·s]
Settings | x2 = 0 | x2 = 0.1074 | x2 = 0.2228 | x2 = 0.3027
303.15 K | 28.6 ± 0.9 | 23.8 ± 0.7 | 19.4 ± 0.6 | 16.4 ± 0.5
323.15 K | 15.9 ± 0.5 | 13.6 ± 0.4 | 11.4 ± 0.4 | 9.9 ± 0.31
